Data published in patent US11976061B2, “Preparation of benzimidazolone derivatives as novel diacylglyceride O-acyltransferase 2 inhibitors” (Merck Sharp & Dohme LLC, priority 2020, dated 2024).
Like-named read-outs stand apart in the source and are kept apart here.

Target: T1, human DGAT2 (hDGAT2) (Homo sapiens, UniProt Q96PD7)
T1 construct: made in house; host or cells: Sf-9 insect cells (baculovirus), membrane fraction
T1 sequence (Q96PD7 1-388): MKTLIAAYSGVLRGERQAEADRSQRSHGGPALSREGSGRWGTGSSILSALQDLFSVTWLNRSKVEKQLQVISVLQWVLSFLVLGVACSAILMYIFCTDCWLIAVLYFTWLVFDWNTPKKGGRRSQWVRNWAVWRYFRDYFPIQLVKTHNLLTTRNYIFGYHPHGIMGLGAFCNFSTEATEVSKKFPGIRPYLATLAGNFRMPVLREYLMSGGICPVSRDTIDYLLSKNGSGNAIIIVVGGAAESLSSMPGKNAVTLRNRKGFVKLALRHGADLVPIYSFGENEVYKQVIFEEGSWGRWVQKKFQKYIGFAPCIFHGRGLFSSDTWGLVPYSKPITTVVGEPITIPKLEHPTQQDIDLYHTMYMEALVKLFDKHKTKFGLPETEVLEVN
Assay: DGAT2 Enzymatic Activity Assay
Type: biochemical
Conditions: membrane prep of Sf-9 cells expressing hDGAT2, 25 μM diolein, 5 μM 13C oleoyl-CoA, 13C18-triolein by LC/MS/MS
In short: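 Membranes from Sf-9 cells expressing untagged human DGAT2 (8 ng/μL) incubated at rt in 100 mM Tris·Cl pH 7.0, 20 mM MgCl2, 5% ethanol with 25 μM diolein and 5 μM 13C oleoyl-CoA. 13C18-triolein product quantified by LC/MS/MS against 13C21-triolein internal standard; IC50 by 4-parameter fit.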

Structure (SMILES): CC(C)n1c(=O)n(-c2cccc(OC(F)(F)F)c2)c2ccc(C(=O)NC3(C)CS(=O)(=O)C3)cc21 [Example 19, 3-isopropyl-N-(3-methyl-1,1-dioxo-thietan-3-yl)-2-oxo-1-[3-(trifluoromethoxy)phenyl]benz-imidazole-5-carboxamide]
- IC50 (read-out: Human DGAT2 IC50): 100 nM

Structure (SMILES): CC(C)n1c(=O)n(-c2cc(OC(F)F)ncc2F)c2ccc(C(=O)NC3(C)CS(=O)(=O)C3)cc21 [Example 20, 1-(2-(difluoromethoxy)-5-fluoropyridin-4-yl)-3-isopropyl-N-(3-methyl-1,1-dioxidothietan-3-yl)-2-oxo-2,3-dihydro-1H-benzo[d]imidazole-5-carboxamide]
- IC50 (read-out: Human DGAT2 IC50): 76 nM

Structure (SMILES): CCOc1cc(-n2c(=O)n(C(C)C)c3cc(C(=O)NC4(C)CS(=O)(=O)C4)c(F)cc32)c(F)cn1 [Example 21, 1-(2-Ethoxy-5-fluoropyridin-4-yl)-6-fluoro-3-isopropyl-N-(3-methyl-1,1-dioxidothietan-3-yl)-2-oxo-2,3-dihydro-1H-benzo[d]imidazole-5-carboxamide]
- IC50 (read-out: Human DGAT2 IC50): 31 nM

Structure (SMILES): CC(C)n1c(=O)n(-c2cccc(C3CC3(F)F)c2)c2ccc(C(=O)NC3(C)CS(=O)(=O)C3)cc21 (centres unmarked) [Example 22, 1-(3-(2,2-Difluorocyclopropyl)phenyl)-3-isopropyl-N-(3-methyl-1,1-dioxidothietan-3-yl)-2-oxo-2,3-dihydro-1H-benzo[d]imidazole-5-carboxamide]
- IC50 (read-out: Human DGAT2 IC50): 66 nM

Structure (SMILES): CC(C)n1c(=O)n(-c2cccc(OC(F)F)c2)c2ccc(C(=O)N[C@]3(C)CCS(=O)(=O)C3)cc21 [Example 23, (R)-1-(3-(Difluoromethoxy)phenyl)-3-isopropyl-N-(3-methyl-1,1-dioxidotetrahydrothiophen-3-yl)-2-oxo-2,3-dihydro-1H-benzo[d]imidazole-5-carboxamide]
- IC50 (read-out: Human DGAT2 IC50): 63 nM

Structure (SMILES): CC(C)n1c(=O)n(-c2cc(OC(F)F)ncc2F)c2cc(F)c(C(=O)NC3(C)CS(=O)(=O)C3)cc21 [Example 24, 1-(2-(Difluoromethoxy)-5-fluoropyridin-4-yl)-6-fluoro-3-isopropyl-N-(3-methyl-1,1-dioxidothietan-3-yl)-2-oxo-2,3-dihydro-1H-benzo[d]imidazole-5-carboxamide]
- IC50 (read-out: Human DGAT2 IC50): 66 nM

Structure (SMILES): CC(C)n1c(=O)n(-c2cccc(OC(F)F)c2)c2ccc(C(=O)NC3(C)CCS(=O)(=O)CC3)cc21 [Example 25, 1-(3-(difluoromethoxy)phenyl)-3-isopropyl-N-(4-methyl-1,1-dioxidotetrahydro-2H-thiopyran-4-yl)-2-oxo-2,3-dihydro-1H-benzo[d]imidazole-5-carboxamide]
- IC50 (read-out: Human DGAT2 IC50): 23 nM

Structure (SMILES): CC(C)n1c(=O)n(-c2cccc(OC(F)F)c2)c2ccc(C(=O)NC3(C)CS(=O)(=O)C3)cc21 [Example 26, 1-[3-(difluoromethoxy)phenyl]-3-isopropyl-N-(3-methyl-1,1-dioxo-thietan-3-yl)-2-oxo-benzimidazole-5-carboxamide]
- IC50 (read-out: DGAT2 IC50): 54 nM

Structure (SMILES): CC(C)n1c(=O)n(-c2cccc(OC(F)F)c2)c2ccc(C(=O)NC(C)C(C)(C)O)cc21 (centres unmarked) [Example 27, 1-[3-(difluoromethoxy)phenyl]-N-(2-hydroxy-1,2-dimethyl-propyl)-3-isopropyl-2-oxo-benzimidazole-5-carboxamide]
- IC50 (read-out: DGAT2 IC50): > 10000 nM

Structure (SMILES): CC(C)n1c(=O)n(-c2cccc(OC(F)F)c2)c2ccc(C(=O)N[C@H]3CCC[C@@H]3O)cc21 [Example 28, 1-[3-(difluoromethoxy)phenyl]-N-[(1S,2S)-2-hydroxycyclopentyl]-3-isopropyl-2-oxo-benzimidazole-5-carboxamide]
- IC50 (read-out: DGAT2 IC50): 779 nM

Structure (SMILES): CC(C)n1c(=O)n(-c2cccc(OC(F)F)c2)c2ccc(C(=O)N[C@H]3CCOC[C@@H]3O)cc21 [Example 29, 1-[3-(difluoromethoxy)phenyl]-N-[(3R,4S)-3-hydroxytetrahydropyran-4-yl]-3-isopropyl-2-oxo-benzimidazole-5-carboxamide]
- IC50 (read-out: DGAT2 IC50): 1260 nM

Structure (SMILES): CC(C)n1c(=O)n(-c2cccc(OC(F)F)c2)c2ccc(C(=O)N[C@H]3CCCC(F)(F)[C@@H]3O)cc21 [Example 30, N-[(1S,2R)-3,3-difluoro-2-hydroxy-cyclohexyl]-1-[3-(difluoromethoxy)phenyl]-3-isopropyl-2-oxo-benzimidazole-5-carboxamide]
- IC50 (read-out: DGAT2 IC50): 31 nM

Structure (SMILES): CC(C)n1c(=O)n(-c2cccc(OC(F)F)c2)c2ccc(C(=O)N[C@@H]3CCCC[C@H]3O)cc21 [Example 31, 1-[3-(difluoromethoxy)phenyl]-N-[(1R,2R)-2-hydroxycyclohexyl]-3-isopropyl-2-oxo-benzimidazole-5-carboxamide]
- IC50 (read-out: DGAT2 IC50): 106 nM

Structure (SMILES): CC(C)n1c(=O)n(-c2cccc(OC(F)F)c2)c2ccc(C(=O)N[C@@]3(C)CCS(=O)(=O)C3)cc21 [Example 32, 1-[3-(difluoromethoxy)phenyl]-3-isopropyl-N-[(3S)-3-methyl-1,1-dioxo-thiolan-3-yl]-2-oxo-benzimidazole-5-carboxamide]
- IC50 (read-out: DGAT2 IC50): 96 nM

Structure (SMILES): CC(C)n1c(=O)n(-c2cccc(OC(F)F)c2)c2ccc(C(=O)NC3(C)CC(F)(F)C3)cc21 [Example 33, 1-[3-(difluoromethoxy)phenyl]-N-(3,3-difluoro-1-methyl-cyclobutyl)-3-isopropyl-2-oxo-benzimidazole-5-carboxamide]
- IC50 (read-out: DGAT2 IC50): 182 nM

Structure (SMILES): CC(C)[C@@H](CO)NC(=O)c1ccc2c(c1)n(C(C)C)c(=O)n2-c1cccc(OC(F)F)c1 [Example 34, 1-[3-(difluoromethoxy)phenyl]-N-[(1S)-1-(hydroxymethyl)-2-methyl-propyl]-3-isopropyl-2-oxo-benzimidazole-5-carboxamide]
- IC50 (read-out: DGAT2 IC50): 62 nM

Structure (SMILES): CC(C)n1c(=O)n(-c2cccc(OC(F)F)c2)c2ccc(C(=O)N[C@H]3CCCC[C@@H]3O)cc21 [Example 35, 1-[3-(difluoromethoxy)phenyl]-N-[(1S,2S)-2-hydroxycyclohexyl]-3-isopropyl-2-oxo-benzimidazole-5-carboxamide]
- IC50 (read-out: DGAT2 IC50): 71 nM

Structure (SMILES): CC1(NC(=O)c2ccc3c(c2)n(C2CCOCC2)c(=O)n3-c2cccc(OC(F)F)c2)CS(=O)(=O)C1 [Example 36, 1-(3-(difluoromethoxy)phenyl)-N-(3-methyl-1,1-dioxidothietan-3-yl)-2-oxo-3-(tetrahydro-2H-pyran-4-yl)-2,3-dihydro-1H-benzo[d]imidazole-5-carboxamide]
- IC50 (read-out: DGAT2 IC50): 19.4 nM

Structure (SMILES): C[C@@]1(NC(=O)c2ccc3c(c2)n(C2CCC2)c(=O)n3-c2cccc(OC(F)F)c2)CCS(=O)(=O)C1 [Example 37, (R)-3-Cyclobutyl-1-(3-(difluoromethoxy)phenyl)-N-(3-methyl-1,1-dioxidotetrahydrothiophen-3-yl)-2-oxo-2,3-dihydro-1H-benzo[d]imidazole-5-carboxamide]
- IC50 (read-out: DGAT2 IC50): 64 nM

Structure (SMILES): C[C@@]1(NC(=O)c2ccc3c(c2)n(C2CCCC2)c(=O)n3-c2cccc(OC(F)F)c2)CCS(=O)(=O)C1 [Example 38, (R)-3-Cyclopentyl-1-(3-(difluoromethoxy)phenyl)-N-(3-methyl-1,1-dioxidotetrahydrothiophen-3-yl)-2-oxo-2,3-dihydro-1H-benzo[d]imidazole-5-carboxamide]
- IC50 (read-out: DGAT2 IC50): 24 nM

Structure (SMILES): CCn1c(=O)n(-c2cccc(OC(F)F)c2)c2ccc(C(=O)NC3(C)CCS(=O)(=O)CC3)cc21 [Example 39, 1-(3-(Difluoromethoxy)phenyl)-3-ethyl-N-(4-methyl-1,1-dioxidotetrahydro-2H-thiopyran-4-yl)-2-oxo-2,3-dihydro-1H-benzo[d]imidazole-5-carboxamide]
- IC50 (read-out: DGAT2 IC50): 109 nM

Structure (SMILES): CCn1c(=O)n(-c2cccc(OC(F)F)c2)c2ccc(C(=O)NC3(C)CS(=O)(=O)C3)cc21 [Example 40, 1-(3-(Difluoromethoxy)phenyl)-3-ethyl-N-(3-methyl-1,1-dioxidothietan-3-yl)-2-oxo-2,3-dihydro-1H-benzo[d]imidazole-5-carboxamide]
- IC50 (read-out: DGAT2 IC50): 194 nM

Structure (SMILES): CC1(NC(=O)c2ccc3c(c2)n(C2CC2)c(=O)n3-c2cccc(OC(F)F)c2)CCS(=O)(=O)CC1 [Example 41, 3-Cyclopropyl-1-(3-(difluoromethoxy)phenyl)-N-(4-methyl-1,1-dioxidotetrahydro-2H-thiopyran-4-yl)-2-oxo-2,3-dihydro-1H-benzo[d]imidazole-5-carboxamide]
- IC50 (read-out: DGAT2 IC50): 211 nM

Structure (SMILES): CC1(NC(=O)c2ccc3c(c2)n(CCC(F)(F)F)c(=O)n3-c2cccc(OC(F)F)c2)CCS(=O)(=O)CC1 [Example 42, 1-(3-(Difluoromethoxy)phenyl)-N-(4-methyl-1,1-dioxidotetrahydro-2H-thiopyran-4-yl)-2-oxo-3-(3,3,3-trifluoropropyl)-2,3-dihydro-1H-benzo[d]imidazole-5-carboxamide]
- IC50 (read-out: DGAT2 IC50): 405 nM

Structure (SMILES): CC1(NC(=O)c2ccc3c(c2)n(CC(F)(F)F)c(=O)n3-c2cccc(OC(F)F)c2)CS(=O)(=O)C1 [Example 43, 1-(3-(Difluoromethoxy)phenyl)-N-(3-methyl-1,1-dioxidothietan-3-yl)-2-oxo-3-(2,2,2-trifluoroethyl)-2,3-dihydro-1H-benzo[d]imidazole-5-carboxamide]
- IC50 (read-out: DGAT2 IC50): 202 nM

Structure (SMILES): CC1(NC(=O)c2ccc3c(c2)n(CC(F)(F)F)c(=O)n3-c2cccc(OC(F)F)c2)CCS(=O)(=O)CC1 [Example 44, 1-(3-(difluoromethoxy)phenyl)-N-(4-methyl-1,1-dioxidotetrahydro-2H-thiopyran-4-yl)-2-oxo-3-(2,2,2-trifluoroethyl)-2,3-dihydro-1H-benzo[d]imidazole-5-carboxamide]
- IC50 (read-out: DGAT2 IC50): 87 nM
